These results are taken from US11591355B2 (Peloton Therapeutics, Inc., priority 2017, dated 2023).

For one assay, the target named is T1, Human CD73 (Homo sapiens, UniProt P21589).
T1 construct: purchased R&D Systems; host or cells: CHO cells
T1 sequence (P21589 27-549): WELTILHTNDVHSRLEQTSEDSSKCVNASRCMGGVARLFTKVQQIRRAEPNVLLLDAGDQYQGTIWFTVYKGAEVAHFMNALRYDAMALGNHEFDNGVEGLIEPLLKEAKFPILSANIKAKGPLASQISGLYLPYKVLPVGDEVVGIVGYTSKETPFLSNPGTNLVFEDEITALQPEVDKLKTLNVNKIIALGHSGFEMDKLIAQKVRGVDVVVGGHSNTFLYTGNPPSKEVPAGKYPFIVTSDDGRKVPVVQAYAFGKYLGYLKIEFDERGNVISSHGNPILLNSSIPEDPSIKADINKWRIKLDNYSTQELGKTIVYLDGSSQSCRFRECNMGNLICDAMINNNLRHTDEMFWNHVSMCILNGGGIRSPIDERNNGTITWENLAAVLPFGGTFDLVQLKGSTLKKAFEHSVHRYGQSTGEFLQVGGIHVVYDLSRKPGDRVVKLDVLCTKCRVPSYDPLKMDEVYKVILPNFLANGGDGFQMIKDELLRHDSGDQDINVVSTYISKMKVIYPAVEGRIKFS
Briefly: CD73 Enzyme Assay. The assay is classed as biochemical. To be noted: 0.25 nM hCD73, 25 μM AMP, kinetic read at 360 nm; read-out: CD73 Enzyme Assay IC50.

Assay [1] addresses T2, CD73 on U138 human neuroglioma cells (Homo sapiens, UniProt P21589).
T2 construct: U138 cells were obtained from ATCC and cultured in DMEM with 10% FBS; host or cells: U138 human neuroglioma cells
T2 sequence (P21589 27-549): T1 sequence (P21589 27-549)
The assay can be described thus: CD73 Cell-Based Assay. To be noted: U138 cells, AMP substrate, 2 hours at 37° C., inorganic phosphate by malachite green. The method in brief:
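Whole U138 cells washed free of phosphate were incubated with 200 μM AMP (mixture concentration before equal-volume addition) plus compound in HEPES-buffered saline, pH 7.4, for 2 h at 37 °C, 5% CO2. Adenosine-forming activity read as inorganic phosphate released into supernatant by malachite green.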

As usually defined, the IC50 is the concentration that gives 50% inhibition. Regarding `CCNc1nc(Cl)nc2c1ccn2[C@@H]1O[C@H](COCP(=O)(O)O)[C@@H](O)[C@H]1O` [Compound 98, [(2R,3S,4R,5R)-5-[2-chloro-4-(ethylamino)-pyrrolo[2,3-d]-pyrimidin-7-yl]-3,4-dihydroxy-tetrahydro-furan-2-yl]methoxy-methylphosphonic acid], the IC50 (on Human CD73; in assay [1]) was 0.01 to 0.1 µM in each case.

Regarding `O=P(O)(O)COC[C@H]1O[C@@H](n2ccc3c(NC4CCOCC4)nc(Cl)nc32)[C@H](O)[C@@H]1O` [Compound 99, [(2R,3S,4R,5R)-5-[2-chloro-4-(tetrahydro-pyran-4-ylamino)-pyrrolo[2,3-d]-pyrimidin-7-yl]-3,4-dihydroxy-tetrahydro-furan-2-yl]methoxy-methylphosphonic acid], the IC50 (at Human CD73; in assay [1]) was 0.01 to 0.1 µM throughout.

Regarding `O=P(O)(O)COC[C@H]1O[C@@H](n2ccc3c(N4CCOCC4)nc(Cl)nc32)[C@H](O)[C@@H]1O` [Compound 100, [(2R,3S,4R,5R)-5-(2-chloro-4-morpholino-pyrrolo[2,3-d]-pyrimidin-7-yl)-3,4-dihydroxy-tetrahydro-furan-2-yl]methoxy-methylphosphonic acid], the IC50 (at Human CD73; in assay [1]) was 0.01 to 0.1 µM each time.

As to `O=P(O)(O)COC[C@H]1O[C@@H](n2ccc3c(NC4CCC(F)(F)C4)nc(Cl)nc32)[C@H](O)[C@@H]1O` (stereo partly drawn) [Compound 101, [(2R,3S,4R,5R)-5-[2-chloro-4-[(3,3-difluoro-cyclopentyl)amino]-pyrrolo[2,3-d]-pyrimidin-7-yl]-3,4-dihydroxy-tetrahydro-furan-2-yl]methoxy-methylphosphonic acid], the IC50 (at Human CD73; in assay [1]) was below 0.01 µM each time.

For the compound `O=P(O)(O)COC[C@H]1O[C@@H](n2ccc3c(NC4CC5CC5C4)nc(Cl)nc32)[C@H](O)[C@@H]1O` (stereo partly drawn) [Compound 102, [(2R,3S,4R,5R)-5-[4-(3-bicyclo[3.1.0]-hexanylamino)-2-chloro-pyrrolo[2,3-d]-pyrimidin-7-yl]-3,4-dihydroxy-tetrahydro-furan-2-yl]methoxy-methylphosphonic acid], the IC50 (at Human CD73; in assay [1]) was below 0.01 µM each time.

In the case of `O=P(O)(O)COC[C@H]1O[C@@H](n2ccc3c(N4CC5CCCC5C4)nc(Cl)nc32)[C@H](O)[C@@H]1O` (stereo partly drawn) [Compound 103, [(2R,3S,4R,5R)-5-[4-(3,3a,4,5,6,6a-hexa-hydro-1H-cyclopenta-[c]pyrrol-2-yl)-2-chloro-pyrrolo[2,3-d]-pyrimidin-7-yl]-3,4-dihydroxy-tetrahydro-furan-2-yl]methoxy-methylphosphonic acid], the IC50 (on Human CD73; in assay [1]) was below 0.01 µM in each case.

For `C[C@H](c1ccccc1)N(C)c1nc(Cl)nc2c1ncn2[C@@H]1O[C@H](COCP(=O)(O)O)[C@@H](O)[C@H]1O` [Compound 104], the IC50 at Human CD73 is 0.01 to 0.1 µM; in assay [1], below 0.01 µM.

As for `O=P(O)(O)COC[C@H]1O[C@@H](n2ccc3c(N4CC5CC5C4)nc(Cl)nc32)[C@H](O)[C@@H]1O` (stereo partly drawn) [Compound 105, [(2R,3S,4R,5R)-5-[4-(3-azabicyclo[3.1.0]-hexan-3-yl)-2-chloro-pyrrolo[2,3-d]-pyrimidin-7-yl]-3,4-dihydroxy-tetrahydro-furan-2-yl]methoxy-methylphosphonic acid], the IC50 (at Human CD73; in assay [1]) was below 0.01 µM throughout.

As to `C[C@H](Nc1nc(Cl)nc2c1ccn2[C@@H]1O[C@H](COCP(=O)(O)O)[C@@H](O)[C@H]1O)c1ccc(C(F)(F)F)cc1` [Compound 106, [(2R,3S,4R,5R)-5-[2-chloro-4-[[(1S)-1-[4-(trifluoromethyl)-phenyl]ethyl]amino]-pyrrolo[2,3-d]-pyrimidin-7-yl]-3,4-dihydroxy-tetrahydro-furan-2-yl]methoxy-methylphosphonic acid], the IC50 (at Human CD73; in assay [1]) was below 0.01 µM each time.

As to `CN(C)c1nc(C#N)nc2c1ccn2[C@@H]1O[C@H](COCP(=O)(O)O)[C@@H](O)[C@H]1O` [Compound 107, [(2R,3S,4R,5R)-5-[2-cyano-4-(dimethyl-amino)pyrrolo[2,3-d]-pyrimidin-7-yl]-3,4-dihydroxy-tetrahydro-furan-2-yl]methoxy-methylphosphonic acid], the IC50 (on Human CD73; in assay [1]) was 0.01 to 0.1 µM each time.

With `CCNc1nc(C#N)nc2c1ccn2[C@@H]1O[C@H](COCP(=O)(O)O)[C@@H](O)[C@H]1O` [Compound 108, [(2R,3S,4R,5R)-5-[2-cyano-4-(ethylamino)-pyrrolo[2,3-d]-pyrimidin-7-yl]-3,4-dihydroxy-tetrahydro-furan-2-yl]methoxy-methylphosphonic acid], the IC50 (on Human CD73; in assay [1]) was 0.01 to 0.1 µM throughout.

For the compound `O=P(O)(O)COC[C@H]1O[C@@H](n2ccc3c(NC4CCC4)nc(Cl)nc32)[C@H](O)[C@@H]1O` [Compound 109, [(2R,3S,4R,5R)-5-[2-chloro-4-(cyclobutyl-amino)pyrrolo[2,3-d]-pyrimidin-7-yl]-3,4-dihydroxy-tetrahydro-furan-2-yl]methoxy-methylphosphonic acid], the IC50 (at Human CD73; in assay [1]) was below 0.01 µM throughout.

As for `N#Cc1nc(NC2CCC2)c2ccn([C@@H]3O[C@H](COCP(=O)(O)O)[C@@H](O)[C@H]3O)c2n1` [Compound 110, [(2R,3S,4R,5R)-5-[2-cyano-4-(cyclobutyl-amino)pyrrolo[2,3-d]-pyrimidin-7-yl]-3,4-dihydroxy-tetrahydro-furan-2-yl]methoxy-methylphosphonic acid], the IC50 (on Human CD73; in assay [1]) was below 0.01 µM throughout.

For `O=P(O)(O)COC[C@H]1O[C@@H](n2ccc3c(NC4CCCCC4)nc(Cl)nc32)[C@H](O)[C@@H]1O` [Compound 111, [(2R,3S,4R,5R)-5-[2-chloro-4-(cyclohexyl-amino)pyrrolo[2,3-d]-pyrimidin-7-yl]-3,4-dihydroxy-tetrahydro-furan-2-yl]methoxy-methylphosphonic acid], the IC50 (at Human CD73; in assay [1]) was below 0.01 µM throughout.

Consider `O=P(O)(O)COC[C@H]1O[C@@H](n2ccc3c(N4CCC4)nc(Cl)nc32)[C@H](O)[C@@H]1O` [Compound 112, [(2R,3S,4R,5R)-5-[4-(azetidin-1-yl)-2-chloro-pyrrolo[2,3-d]-pyrimidin-7-yl]-3,4-dihydroxy-tetrahydro-furan-2-yl]methoxy-methylphosphonic acid], for which the IC50 (on Human CD73; in assay [1]) was 0.01 to 0.1 µM in each case.

`C[C@H](c1ccccc1)N(C)c1nc(C#N)nc2c1ncn2[C@@H]1O[C@H](COCP(=O)(O)O)[C@@H](O)[C@H]1O` [Compound 113]: the IC50 (at Human CD73; in assay [1]) was 0.01 to 0.1 µM each time.

As to `C[C@@H](Nc1nc(Cl)nc2c1ccn2[C@@H]1O[C@H](COCP(=O)(O)O)[C@@H](O)[C@H]1O)c1ccc(C(F)(F)F)cc1` [Compound 114, [(2R,3S,4R,5R)-5-[2-chloro-4-[[(1R)-1-[4-(trifluoromethyl)-phenyl]ethyl]amino]-pyrrolo[2,3-d]-pyrimidin-7-yl]-3,4-dihydroxy-tetrahydro-furan-2-yl]methoxy-methylphosphonic acid], the IC50 at Human CD73 is 0.01 to 0.1 µM; in assay [1] it was below 0.01 µM.
